row,melting point,SMILES
1,158 to 160 °C,O=C(CCC(=O)N1CCC(c2ccc(Cl)cc2)CC1)c1ccc2c(c1)CCN(C(=O)c1ccccc1)CC2
2,100 to 102 °C,OC1CCCN(CC(O)COc2ccc(-c3ccc(F)cc3)cc2)C1 (centres undefined)
3,168 to 169 °C,Cc1oc(-c2ccccc2)nc1C(=O)COc1ccc(CC2SC(=O)NC2=O)cc1 (centres undefined)
4,132 to 135 °C,O=C(NS(=O)(=O)C=Cc1ccccc1)N1CCC(CCCc2ccc(O)cc2)CC1
5,256 °C,O=C1NC(=O)C(c2c[nH]c3ccccc23)=C1c1ccccc1
6,68 to 69 °C,CCCCCCCCCC(=O)OC1=C(c2nnc(CCCCCCCCC)o2)N(C)S(=O)(=O)c2ccccc21
7,270 to 271 °C,O=C(c1ccn2c1CSC2c1cccnc1)c1c[nH]c2cc(-c3cccnc3)ccc12 (centres undefined)
8,124 to 126 °C,CCOc1ccccc1NC(=O)C1Sc2ccc(Cl)cc2N(C)C1=O (centres undefined)
9,233 to 235 °C,CC(C)c1ccc(-c2ccc(-c3cccc(C(=O)O)c3)s2)cc1
10,209 to 210 °C,Nc1cccc(Oc2ccc3c(c2)OCC(=O)N3)c1
11,115 to 116 °C,COC(=O)CC1CC(=O)Nc2ccccc21 (centres undefined)
12,168 to 170 °C,Cn1c(-c2ccccc2)nc2cnc3ccccc3c21
13,214 to 216 °C,CN1CCC=C(c2cc3ccccc3c(=O)[nH]2)C1
14,183 to 186 °C,CC(C)(C)[Si](C)(C)OC1CN(c2ccc(N3C[C@H](CO)OC3=O)cc2F)C1
15,124 °C,C=CCOc1ccccc1C=NNC(=N)N
16,127 to 128 °C,Cc1cc(Cl)cc(C(=O)NCC2CC2)c1N
17,96 °C,CC1CCCN(C(=O)COc2cc(-c3ccccc3)nc3ccccc23)C1 (centres undefined)
18,182 °C,CCCCOc1ccc(S(=O)(=O)C2(C(=O)O)CCN(CCCC)CC2)cc1
19,151 °C,CC(=O)OC1CSC(Oc2ccnc(-c3ccc(F)nc3)c2)C(OC(C)=O)C1OC(C)=O (centres undefined)
20,195 to 200 °C,COc1ccc([N+](=O)[O-])c2[nH]ccc(=O)c12
21,81 to 82 °C,COC(=O)CCCNC(=O)C(CSC(C)=O)Cc1ccccc1 (centres undefined)
22,248 to 250 °C,N=C(NO)c1ccc(-c2ccc(-c3ccc(C(=N)NO)o3)o2)nc1

row,melting point,SMILES
1,212 to 214 °C,CC(C)C[C@@H]1NC(=O)OC1(c1ccccc1)c1ccccc1
2,197 to 198 °C,COc1ccc(S(=O)(=O)N2c3ccccc3-c3ccc(F)cc3[C@@H]2C)cc1
3,138 to 139 °C,COc1ccc(Br)cc1C12CC3CC(CC(C3)C1)C2
4,203 °C,CN1C(C)(C)CC(OC(=O)CCC(C)(c2ccc(O)c(C(C)(C)C)c2)c2ccc(O)c(C(C)(C)C)c2)CC1(C)C
5,144 to 145 °C,CC(=O)c1ccc(-c2cc(C(C)(C)C)c(O)c(C(C)(C)C)c2)cc1
6,224 to 225 °C,CC(=O)c1ccc(Cn2ccc3c4c(N)nc(N)nc4ccc32)cc1
7,96 to 100 °C,CNS(=O)(=O)c1ccc(-c2cccc(-c3nc(C(C)C)[nH]c3-c3cccc(C)n3)c2)cc1
8,58.7 to 59 °C,CCCCCCCCc1cnc(-c2ccc(OC)c(F)c2)nc1
9,187 to 189 °C,CN1CCN(c2ncnc3c(N)cccc23)C1=O
10,176 to 178 °C,COc1ccc(N2CCN(Cc3n[nH]c4c3Cc3ccccc3-4)CC2)cc1
11,178 to 180 °C,CCN(CC)CCCn1ccc2cc(Nc3ncnc4cc(-c5ccccc5)sc34)ccc21
12,168 to 170 °C,O=c1ccc(C(F)(F)F)cn1Cc1ccc(NCCCN2CCCCC2)cc1
13,119 to 120 °C,CCCc1cc(Cl)c2oc(Cc3ccc(OC(C)=O)cc3)c(C)c2c1OC(C)=O
14,153 to 154 °C,Cc1cc(CCCCCCCOc2ccc(C(N)=O)cc2)on1
15,178 to 183 °C,C=CCN1CC(c2ccccc2)=C(O)C1=O
16,> 250 °C,CCCn1c(=O)sc2cc(F)c(-n3c(=O)cc(CC)[nH]c3=O)cc21
17,120 to 122 °C,N#CN=C1NCCN1Cc1ccccc1
18,202 to 204 °C,CC1CC=C(Nc2ccc(Br)cc2)c2ncc(C(=O)O)c(=O)n21 (centres undefined)
19,45 °C,CCOC(=O)CN1[C@H](C)CN(c2ccc(N)cc2C#N)C[C@@H]1C
20,193 to 194 °C,N#Cc1c(N2CCN(Cc3ccccc3)CC2)nn2c(-c3ccncc3)ccnc12
21,199 to 204 °C,O=C(O)c1cn(-c2ccc(F)cc2)c(-c2ccc(Cl)cc2)cc1=O
22,178 to 200 °C,CNc1cc(-c2ccc(Cl)cc2)nc(C(=O)OC)c1N

row,melting point,SMILES
1,72.5 to 73.5 °C,COC(=O)CCCCCCCCCCCCCCCCCCCS(=O)(=O)c1ccc(C)cc1
2,237 to 239 °C,O=C1CN2Cc3c(ccc(OCC(=O)N(CCO)C4CCCCC4)c3Cl)N=C2N1
3,225 to 227 °C,CNc1ccc(-c2nc3c4ccccc4ccc3n2C)cc1
4,219 to 223 °C,CC(=O)NCC1CN(c2ccc(N3CCN(C4=NCCS4)CC3)c(F)c2)C(=O)O1 (centres undefined)
5,162 to 164 °C,Cc1ccc(Cl)cc1NC(=S)NCC(N)=O
6,164 to 165 °C,CS(=O)(=O)c1ccc(C(=O)c2cnoc2C2CC2)c2c1OC(F)(F)O2
7,123 to 124 °C,CC#Cc1ccc(NC(=O)c2ccccc2NCc2ccc(OC)nc2)cc1C(F)(F)F
8,177 to 178 °C,CCSCc1cc2cc(CN3CCOCC3)cc3c(=O)c(C(=O)NCc4ccc(Cl)cc4)cn1c23
9,172 to 174 °C,CC(=O)NC[C@H]1OC(=O)N2c3ccc(C(=O)CCl)cc3C[C@H]12
10,199 to 200 °C,O=C(Nc1cccc2c(CCO)c(Br)cnc12)c1c(Cl)cccc1Cl
11,94 to 97 °C,O[C@H](COc1cccc2[nH]ccc12)CN1CCC(c2c[nH]c3ccc(F)cc23)CC1
12,250 to 252 °C,O=C1c2c(cc(O)c(Cl)c2Cl)CC1c1ccccc1 (centres undefined)
13,152 to 154 °C,O=C(O)C(CCc1ccccc1)Oc1ccc(-c2ccc(-c3c(Cc4ccccc4)oc4ccccc34)cc2)cc1 (centres undefined)
14,258 °C,Cc1cn(-c2cc(NC(=O)c3ccc(C)c(/C=C/n4cnc5c(N)ncnc54)c3)cc(C(F)(F)F)c2)cn1
15,229 to 230 °C,O=C(Nc1c(C(F)(F)F)n[nH]c1-c1ccccc1)c1ccccc1
16,71 to 76 °C,Cc1c2n(c3ccccc13)C(=O)N(C(C)c1ncn(C(c3ccccc3)(c3ccccc3)c3ccccc3)c1C)CC2 (centres undefined)
17,88.5 °C,CC(CCCC(C)C1CCC2C3CC=C4C(C)(C)C(O)CCC4(C)C3CCC12C)CO[Si](C)(C)C(C)(C)C (centres undefined)
18,48 to 63 °C,O=C(Oc1ccc(Oc2ccccc2)cc1)N1CCC(OC(=O)N2CCC(OC(=O)N3CCC4(CCCC4)CC3)CC2)CC1
19,203 to 205 °C,O=S(=O)(Nc1cnc(Oc2cc3ccccc3cn2)c(Cl)c1)c1ccc(Cl)cc1Cl
20,115 to 116 °C,CC(=O)SCSc1cn(C(c2ccccc2)(c2ccccc2)c2ccccc2)nn1
21,218 to 222 °C,COc1ccc(C[C@H]2Cc3cc(C)cnc3[C@H](C)C2)cc1
22,119 to 120 °C,CCCOc1c(C=NO)c(=O)n(C)c(=O)n1C

row,SMILES,melting point
1,Cc1nc(C(Cl)(Cl)Cl)nc(OC(=O)C(Cl)(Cl)Cl)c1Cl,92 °C
2,CCC1CC(=O)CC2CCC3C4CCC(OC(C)=O)C4(C)CCC3C12C (centres undefined),159 °C
3,CC12CC(F)C3(Br)C(CCC4=CC(=O)CCC43C)C1CCC2=O (centres undefined),165 to 166 °C
